{
  "source": "ChEMBL document CHEMBL5532711",
  "about": "“Peniapyrones A-I, Cytotoxic Tricyclic-Fused α-Pyrone Derivatives from an Endophytic Penicillium brefeldianum F4a” (J Nat Prod, 2024)",
  "type_in_all_cases": "functional, cell-based",
  "key": {"[1]": {"tested_on": "ASPC1", "test": "Cytotoxicity against human ASPC1 cells harboring KRAS G12D mutant assessed as inhibition of cell growth"}, "[2]": {"tested_on": "MCF7", "test": "Cytotoxicity against human MCF7 cells assessed as inhibition of cell growth"}, "[3]": {"tested_on": "SNU-449", "test": "Cytotoxicity against human SNU-449 cells assessed as inhibition of cell growth"}},
  "data": [
    {"smiles": "Cc1cc2c(c(=O)o1)[C@@]1(C)C=CC(=O)[C@H]1[C@@H](OC[C@H]1C(=O)CC[C@@H]1C)O2", "values": [
      {"measurement": "IC50", "setting": "[1]", "value": 9.4, "unit": "µM"},
      {"measurement": "IC50", "setting": "[2]", "value": 0.8, "unit": "µM"},
      {"measurement": "IC50", "setting": "[3]", "value": 1.2, "unit": "µM"}
    ]},
    {"smiles": "Cc1cc2c(c(=O)o1)[C@]1(C)C=CC(=O)[C@@H]1[C@H](OC[C@H]1C(=O)CC[C@@H]1C)O2", "values": [
      {"measurement": "IC50", "setting": "[1]", "value": "> 10", "unit": "µM"},
      {"measurement": "IC50", "setting": "[2]", "value": "> 10", "unit": "µM"},
      {"measurement": "IC50", "setting": "[3]", "value": "> 10", "unit": "µM"}
    ]},
    {"smiles": "CO[C@@H]1Oc2cc(C)oc(=O)c2[C@]2(C)C=CC(=O)[C@H]12", "values": [
      {"measurement": "IC50", "setting": "[1]", "value": "> 10", "unit": "µM"},
      {"measurement": "IC50", "setting": "[2]", "value": "> 10", "unit": "µM"},
      {"measurement": "IC50", "setting": "[3]", "value": "> 10", "unit": "µM"}
    ]},
    {"smiles": "C=C1[C@@H](O)C[C@H]2Oc3cc(C)oc(=O)c3[C@@]12C", "values": [
      {"measurement": "IC50", "setting": "[1]", "value": 1.7, "unit": "µM"},
      {"measurement": "IC50", "setting": "[2]", "value": 0.2, "unit": "µM"},
      {"measurement": "IC50", "setting": "[3]", "value": 2.7, "unit": "µM"}
    ]},
    {"smiles": "CCO[C@@H]1Oc2cc(C)oc(=O)c2[C@]2(C)C=CC(=O)[C@H]12", "values": [
      {"measurement": "IC50", "setting": "[1]", "value": 2.2, "unit": "µM"},
      {"measurement": "IC50", "setting": "[2]", "value": 0.7, "unit": "µM"},
      {"measurement": "IC50", "setting": "[3]", "value": 1.4, "unit": "µM"}
    ]},
    {"smiles": "Cc1cc2c(c(=O)o1)[C@@]1(C)C[C@H](O)C[C@H]1O2", "values": [
      {"measurement": "IC50", "setting": "[1]", "value": 1.5, "unit": "µM"},
      {"measurement": "IC50", "setting": "[2]", "value": 4.6, "unit": "µM"},
      {"measurement": "IC50", "setting": "[3]", "value": "> 10", "unit": "µM"}
    ]},
    {"smiles": "Cc1cc2c(c(=O)o1)[C@]1(C)C=CC(=O)[C@@H]1[C@H](O)O2", "values": [
      {"measurement": "IC50", "setting": "[1]", "value": 1.7, "unit": "µM"},
      {"measurement": "IC50", "setting": "[2]", "value": 5.3, "unit": "µM"},
      {"measurement": "IC50", "setting": "[3]", "value": 5.9, "unit": "µM"}
    ]},
    {"smiles": "Cc1cc2c(c(=O)o1)[C@@]1(C)[C@H](CO)[C@@H](O)C[C@H]1O2", "values": [
      {"measurement": "IC50", "setting": "[1]", "value": "> 10", "unit": "µM"},
      {"measurement": "IC50", "setting": "[2]", "value": 5.5, "unit": "µM"},
      {"measurement": "IC50", "setting": "[3]", "value": 8.8, "unit": "µM"}
    ]},
    {"smiles": "Cc1cc2c(c(=O)o1)[C@@]1(C)CC(=O)C[C@H]1O2", "note": "(racemic)", "values": [
      {"measurement": "IC50", "setting": "[1]", "value": 2.9, "unit": "µM"},
      {"measurement": "IC50", "setting": "[2]", "value": 9.9, "unit": "µM"},
      {"measurement": "IC50", "setting": "[3]", "value": "> 10", "unit": "µM"}
    ]},
    {"smiles": "Cc1nc(Nc2ncc(C(=O)Nc3c(C)cccc3Cl)s2)cc(N2CCN(CCO)CC2)n1", "note": "[DASATINIB ANHYDROUS]", "values": [
      {"measurement": "IC50", "setting": "[1]", "value": 3.3, "unit": "µM"},
      {"measurement": "IC50", "setting": "[2]", "value": "> 10", "unit": "µM"}
    ]},
    {"smiles": "Nc1ccn([C@@H]2O[C@H](CO)[C@@H](O)C2(F)F)c(=O)n1", "note": "[GEMCITABINE]", "values": [
      {"measurement": "IC50", "setting": "[1]", "value": 0.5, "unit": "µM"},
      {"measurement": "IC50", "setting": "[3]", "value": "> 10", "unit": "µM"}
    ]}
  ]
}
